Results: patent publication EP4707280A1, “1,4-CINEOLE DERIVATIVE AND INTERMEDIATE THEREOF, HERBICIDE CONTAINING SAID DERIVATIVE AS ACTIVE INGREDIENT, METHOD FOR USING HERBICIDE, AND METHOD FOR PREPARING AGROCHEMICAL COMPOSITION” (HOKKO CHEMICAL INDUSTRY CO., LTD., priority 2023, dated 2024)

How the values were obtained:
Assay type in all cases: in vivo
[1] = tested on: Echinochloa crus-galli var. formosensis; assay: Test Example 1: herbicidal effect test by soil application in paddy rice; conditions: Echinochloa crus-galli, soil, 336 h; 120 g active ingredient per 10 ares; applied immediately after sowing, flooded pots; 14 days after application; read-out: weed inhibition rate
Outline: (§1)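 Pre-emergence paddy soil application, 120 g a.i./10 a, emulsifiable concentrate diluted in water, applied by dropper right after sowing. Seeds (30/species) sown 0–1 cm in puddled, fertilized soil; flooded ~3 cm; glass greenhouse.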

Scirpus juncoides [2] = assay: as above; conditions: Schoenoplectiella juncoides, soil, 336 h; 120 g active ingredient per 10 ares; applied immediately after sowing, flooded pots; 14 days after application; read-out: weed inhibition rate
Outline: as §1

[3] = tested on: Echinochloa crus-galli var. formosensis; assay: Test Example 2: herbicidal effect test by application during growth period of paddy rice; conditions: Echinochloa crus-galli; 120 g per 10 ares; applied seven days after sowing, flooded pots; 14 days after application; read-out: weed inhibition rate
Outline: (§2)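 Greenhouse pots of flooded paddy soil, seeded shallowly with 30 seeds per weed, are treated on day 7 by dropper with diluted emulsifiable concentrate equal to 120 g a.i./10 a. Duplicate pots are scored for inhibition rate 14 days post-application.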

Scirpus juncoides [4] = assay: as above; conditions: Schoenoplectiella juncoides; 120 g per 10 ares; applied seven days after sowing, flooded pots; 14 days after application; read-out: weed inhibition rate
Outline: as §2

Digitaria ciliaris [5] = assay: Test Example 3: herbicidal effect test by soil application in upland field; conditions: Digitaria ciliaris, 120 g per 10 ares, sprayed one day after sowing, 14 days after application, read-out: weed inhibition rate
Outline: (§3)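 Weed inhibition (%) was assessed 14 days after treatment, in duplicate per concentration group. Seeds had been mixed into the upper 1 cm of upland alluvial loam, and the soil surface was sprayed one day later with the diluted emulsifiable concentrate at 120 g active ingredient per 10 ares.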

Echinochloa crus-galli [6] = assay: as above; conditions: Echinochloa crus-galli, 120 g per 10 ares, sprayed one day after sowing, 14 days after application, read-out: weed inhibition rate
Outline: as §3

Digitaria ciliaris [7] = assay: Test Example 4: herbicidal effect test by stem and leaf treatment in upland field; conditions: Digitaria ciliaris; 120 g per 10 ares; sprayed seven days after sowing, upland soil; 14 days after application; read-out: weed inhibition rate
Echinochloa crus-galli [8] = assay: as above; conditions: Echinochloa crus-galli; 120 g per 10 ares; sprayed seven days after sowing, upland soil; 14 days after application; read-out: weed inhibition rate
[9] = tested on: Echinochloa crus-galli var. formosensis; assay: Test Example 5: herbicidal effect test by soil application in paddy rice (low dose); conditions: Echinochloa crus-galli, soil, 336 h; 7.5 g per 10 ares; applied immediately after sowing, flooded pots; 14 days after application; read-out: weed inhibition rate
Outline: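 7.5 g a.i./10 a applied by dropper into ~3 cm floodwater immediately post-sowing (seeds 0–1 cm, 30 per species; puddled fertilized paddy soil, glasshouse). Duplicates; day-14 inhibition %.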

[10] = tested on: Echinochloa crus-galli var. formosensis; assay: Test Example 6: herbicidal effect test by application during growth period of paddy rice (low dose); conditions: Echinochloa crus-galli; 7.5 g per 10 ares; applied seven days after sowing, flooded pots; 14 days after application; read-out: weed inhibition rate
Outline: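 Emulsifiable concentrate, water-diluted, dropped onto flooded paddy pots 7 days post-sowing at 7.5 g active ingredient/10 a. Greenhouse-grown weeds; percent inhibition scored at day 14 after treatment.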

Digitaria ciliaris [11] = assay: Test Example 7: herbicidal effect test by soil application in upland field (low dose); conditions: Digitaria ciliaris, 7.5 g per 10 ares, sprayed one day after sowing, 14 days after application, read-out: weed inhibition rate
Outline: (§4)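 Duplicate pots of alluvial loam, seeds incorporated in the surface 1 cm. Soil surface sprayed 1 d after sowing (EC in water, 100 L/10 a; 7.5 g a.i./10 a). Endpoint: % inhibition, day 14.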

Echinochloa crus-galli [12] = assay: as above; conditions: Echinochloa crus-galli, 7.5 g per 10 ares, sprayed one day after sowing, 14 days after application, read-out: weed inhibition rate
Outline: as §4

Digitaria ciliaris [13] = assay: Test Example 8: herbicidal effect test by stem and leaf treatment in upland field (low dose); conditions: Digitaria ciliaris; 7.5 g per 10 ares; sprayed seven days after sowing, upland soil; 14 days after application; read-out: weed inhibition rate
Echinochloa crus-galli [14] = assay: as above; conditions: Echinochloa crus-galli; 7.5 g per 10 ares; sprayed seven days after sowing, upland soil; 14 days after application; read-out: weed inhibition rate

Cc1ccccc1CO[C@@H]1C[C@]2(C(C)C)O[C@@]1(C)C[C@@H]2Cl [1-9, (1R,2S,4S,5R)-2-chloro-1-isopropyl-4-methyl-5-(o-tolylmethoxy)-7-oxabicyclo[2.2.1]heptane]
≥ 80%: pest or weed control at 1200 g/ha [1] | pest or weed control at 1200 g/ha (Scirpus juncoides [2]) | inhibition at 1200 g/ha [3] | inhibition at 1200 g/ha (Scirpus juncoides [4]) | inhibition at 1200 g/ha (Digitaria ciliaris [5]) | inhibition at 1200 g/ha (Echinochloa crus-galli [6]) | inhibition at 1200 g/ha (Digitaria ciliaris [7]) | inhibition at 1200 g/ha (Echinochloa crus-galli [8]) | inhibition at 75 g/ha [9] | inhibition at 75 g/ha [10] | inhibition at 75 g/ha (Digitaria ciliaris [11]) | inhibition at 75 g/ha (Echinochloa crus-galli [12]) | inhibition at 75 g/ha (Digitaria ciliaris [13]) | inhibition at 75 g/ha (Echinochloa crus-galli [14])

Cc1cccc(C)c1CO[C@@H]1C[C@]2(C(C)C)O[C@@]1(C)C[C@@H]2Cl [1-10, (1R,2S,4S,5R)-2-chloro-5-[(2,6-dimethylphenyl)methoxy]-1-isopropyl-4-methyl-7-oxabicyclo[2.2.1]heptane]
≥ 80%: pest or weed control at 1200 g/ha [1] | pest or weed control at 1200 g/ha (Scirpus juncoides [2]) | inhibition at 1200 g/ha [3] | inhibition at 1200 g/ha (Scirpus juncoides [4]) | inhibition at 1200 g/ha (Digitaria ciliaris [5]) | inhibition at 1200 g/ha (Echinochloa crus-galli [6]) | inhibition at 1200 g/ha (Digitaria ciliaris [7]) | inhibition at 1200 g/ha (Echinochloa crus-galli [8]) | inhibition at 75 g/ha [9] | inhibition at 75 g/ha [10] | inhibition at 75 g/ha (Digitaria ciliaris [11]) | inhibition at 75 g/ha (Echinochloa crus-galli [12]) | inhibition at 75 g/ha (Digitaria ciliaris [13]) | inhibition at 75 g/ha (Echinochloa crus-galli [14])

COc1ccccc1CO[C@@H]1C[C@]2(C(C)C)O[C@@]1(C)C[C@@H]2Cl [1-11, (1R,2S,4S,5R)-2-chloro-1-isopropyl-5-[(2-methoxyphenyl)methoxy]-4-methyl-7-oxabicyclo[2.2.1]heptane]
≥ 80%: pest or weed control at 1200 g/ha [1] | pest or weed control at 1200 g/ha (Scirpus juncoides [2]) | inhibition at 1200 g/ha [3] | inhibition at 1200 g/ha (Scirpus juncoides [4]) | inhibition at 1200 g/ha (Digitaria ciliaris [5]) | inhibition at 1200 g/ha (Echinochloa crus-galli [6]) | inhibition at 1200 g/ha (Digitaria ciliaris [7]) | inhibition at 1200 g/ha (Echinochloa crus-galli [8]) | inhibition at 75 g/ha [9] | inhibition at 75 g/ha [10] | inhibition at 75 g/ha (Digitaria ciliaris [11]) | inhibition at 75 g/ha (Echinochloa crus-galli [12]) | inhibition at 75 g/ha (Digitaria ciliaris [13]) | inhibition at 75 g/ha (Echinochloa crus-galli [14])

CC(C)[C@]12C[C@@H](OCc3ccccc3Cl)[C@](C)(C[C@@H]1Cl)O2 [1-13, (1R,2S,4S,5R)-2-chloro-5-[(2-chlorophenyl)methoxy]-1-isopropyl-4-methyl-7-oxabicyclo[2.2.1]heptane]
≥ 80%: pest or weed control at 1200 g/ha [1] | pest or weed control at 1200 g/ha (Scirpus juncoides [2]) | inhibition at 1200 g/ha [3] | inhibition at 1200 g/ha (Scirpus juncoides [4]) | inhibition at 1200 g/ha (Digitaria ciliaris [5]) | inhibition at 1200 g/ha (Echinochloa crus-galli [6]) | inhibition at 1200 g/ha (Digitaria ciliaris [7]) | inhibition at 1200 g/ha (Echinochloa crus-galli [8]) | inhibition at 75 g/ha [9] | inhibition at 75 g/ha [10] | inhibition at 75 g/ha (Digitaria ciliaris [11]) | inhibition at 75 g/ha (Echinochloa crus-galli [12]) | inhibition at 75 g/ha (Digitaria ciliaris [13]) | inhibition at 75 g/ha (Echinochloa crus-galli [14])

CC(C)[C@]12C[C@@H](OCc3c(F)cccc3F)[C@](C)(C[C@@H]1Cl)O2 [1-14, (1R,2S,4S,5R)-2-chloro-5-[(2,6-difluorophenyl)methoxy]-1-isopropyl-4-methyl-7-oxabicyclo[2.2.1]heptane]
≥ 80%: pest or weed control at 1200 g/ha [1] | pest or weed control at 1200 g/ha (Scirpus juncoides [2]) | inhibition at 1200 g/ha [3] | inhibition at 1200 g/ha (Scirpus juncoides [4]) | inhibition at 1200 g/ha (Digitaria ciliaris [5]) | inhibition at 1200 g/ha (Echinochloa crus-galli [6]) | inhibition at 1200 g/ha (Digitaria ciliaris [7]) | inhibition at 1200 g/ha (Echinochloa crus-galli [8]) | inhibition at 75 g/ha [9] | inhibition at 75 g/ha [10] | inhibition at 75 g/ha (Digitaria ciliaris [11]) | inhibition at 75 g/ha (Echinochloa crus-galli [12]) | inhibition at 75 g/ha (Digitaria ciliaris [13]) | inhibition at 75 g/ha (Echinochloa crus-galli [14])

CO[C@H]1C[C@]2(C)O[C@@]1(C(C)C)C[C@H]2OCc1ccccc1 [1-150, (1R,2S,4S,5R)-5-benzyloxy-1-isopropyl-2-methoxy-4-methyl-7-oxabicyclo[2.2.1]heptane]
≥ 80%: pest or weed control at 1200 g/ha [1] | pest or weed control at 1200 g/ha (Scirpus juncoides [2]) | inhibition at 1200 g/ha [3] | inhibition at 1200 g/ha (Scirpus juncoides [4]) | inhibition at 1200 g/ha (Digitaria ciliaris [5]) | inhibition at 1200 g/ha (Echinochloa crus-galli [6]) | inhibition at 1200 g/ha (Digitaria ciliaris [7]) | inhibition at 1200 g/ha (Echinochloa crus-galli [8]) | inhibition at 75 g/ha [9] | inhibition at 75 g/ha [10] | inhibition at 75 g/ha (Digitaria ciliaris [11]) | inhibition at 75 g/ha (Echinochloa crus-galli [12]) | inhibition at 75 g/ha (Digitaria ciliaris [13]) | inhibition at 75 g/ha (Echinochloa crus-galli [14])

CC(C)=CCO[C@@H]1C[C@]2(C(C)C)O[C@@]1(C)C[C@@H]2Cl [1-612, (1R,2S,4S,5R)-2-chloro-1-isopropyl-4-methyl-5-(3-methylbut-2-enoxy)-7-oxabicyclo[2.2.1]heptane]
≥ 80%: pest or weed control at 1200 g/ha [1] | pest or weed control at 1200 g/ha (Scirpus juncoides [2]) | inhibition at 1200 g/ha [3] | inhibition at 1200 g/ha (Scirpus juncoides [4]) | inhibition at 1200 g/ha (Digitaria ciliaris [5]) | inhibition at 1200 g/ha (Echinochloa crus-galli [6]) | inhibition at 1200 g/ha (Digitaria ciliaris [7]) | inhibition at 1200 g/ha (Echinochloa crus-galli [8]) | inhibition at 75 g/ha [9] | inhibition at 75 g/ha [10] | inhibition at 75 g/ha (Digitaria ciliaris [11]) | inhibition at 75 g/ha (Echinochloa crus-galli [12]) | inhibition at 75 g/ha (Digitaria ciliaris [13]) | inhibition at 75 g/ha (Echinochloa crus-galli [14])

CC#CCO[C@@H]1C[C@]2(C(C)C)O[C@@]1(C)C[C@@H]2Cl [1-614, (1R,2S,4S,5R)-5-but-2-ynoxy-2-chloro-1-isopropyl-4-methyl-7-oxabicyclo[2.2.1]heptane]
≥ 80%: pest or weed control at 1200 g/ha [1] | pest or weed control at 1200 g/ha (Scirpus juncoides [2]) | inhibition at 1200 g/ha [3] | inhibition at 1200 g/ha (Scirpus juncoides [4]) | inhibition at 1200 g/ha (Digitaria ciliaris [5]) | inhibition at 1200 g/ha (Echinochloa crus-galli [6]) | inhibition at 1200 g/ha (Digitaria ciliaris [7]) | inhibition at 1200 g/ha (Echinochloa crus-galli [8]) | inhibition at 75 g/ha [9] | inhibition at 75 g/ha [10] | inhibition at 75 g/ha (Digitaria ciliaris [11]) | inhibition at 75 g/ha (Echinochloa crus-galli [12]) | inhibition at 75 g/ha (Digitaria ciliaris [13]) | inhibition at 75 g/ha (Echinochloa crus-galli [14])
